Experimental data reported in ChEMBL document CHEMBL1151513, “Stereospecific synthesis of chiral acyclic analogues of guanosine” (1992).
Active and inactive are the calls of the source. No cut-off for these calls is given here.

Columns and labels:
[1] = Compound was tested for its in vitro inhibitory effect on the replication of DNA and RNA viruses at 1 mM; No inhibition; assay type: functional
MT4 [2] = experiment: Compound was tested for its cytotoxic effect against MT-4 cells at 1 mM; No effect; assay type: functional, cell-based; details: Homo sapiens
MT4 [3] = experiment: Compound was tested for its cytotoxic effect against MT-4 cells at 1 mM; 1 to 10 uM; assay type: functional; details: Homo sapiens, read-out: CD50 (the source's name)
MT4 [4] = experiment: Compound was tested for its cytotoxic effect against MT-4 cells at 1 mM;value between 10-100 uM; assay type: functional; details: Homo sapiens, read-out: CD50 (the source's name)

SMILES | Activity [1] | Activity (MT4 [2]) | CC50 (MT4 [3]) | CC50 (MT4 [4])
Nc1nc(O)c2ncn(C(OCCO)C(O)CO)c2n1 (stereo not drawn) | inactive | inactive |  | 
Nc1nc(O)c2ncn(C(CCO)OCCO)c2n1 (stereo not drawn) | inactive |  | < 10 µM | 
Nc1nc(O)c2ncn(C3CC(O)C(O)CO3)c2n1 (stereo not drawn) | inactive |  |  | < 100 µM
Nc1nc(O)c2ncn(C(CO)OCCO)c2n1 (stereo not drawn) | inactive | inactive |  | 
